Here are results for seven compounds from US20240382600A1, “BIFUNCTIONAL DEGRADERS COMPRISING A TEAD BINDER” (Novartis AG, priority 2021, published 2024).

The subject of one assay is MKN-45/Ubc-luc cells. Briefly: Proliferation assay (resazurin/AlamarBlue), MKN-45. The settings on record: Homo sapiens; MKN-45, 72 hours. Format: cell-based. Put shortly:
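MKN-45 cells carrying constitutive Ubc-driven luciferase reporter, treated the day after seeding with eleven 2-fold dilutions (0.1% DMSO) for 72 h at 37 °C. Viability by resazurin, referenced to day-0 plate; GI50 from % growth (100 none, 0 stasis, −100 kill) and residual viability at top concentration.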
(In general: Resazurin is reduced to fluorescent resorufin, in cell work by metabolically active cells.)

In assay [1] the target is TEAD1-GFP in HEK293A cells (Homo sapiens (Human), UniProt P28347). Kind of assay: TEAD1 protein abundance flow cytometry assay in HEK293A. Format: cell-based. The conditions noted are these: HEK293A TEAD1-GFP-CHYSEL-mCherry sensor cells, 24 h, GFP signal by flow cytometry. The method, then:
Degradation of TEAD1 was measured in HEK293A cells (Invitrogen R70507) expressing TEAD1-GFP and mCherry from a stably integrated bicistronic TEAD1-GFP-CHYSEL-mCherry construct. Reduction of the GFP signal measured by flow cytometry served as readout for TEAD1 degradation after degrader treatment.
Stable HEK293A sensor cells were maintained in complete growth medium (DMEM high Glucose+10% FCS+1% L-Glutamine+1% NEAA+1% NaPyr.+4 μg/mL blasticidin) with passaging performed twice per week. On Day 0, stable HEK293A sensor cells were seeded at 5,000 cells/well in a 96-well microtiter plate in 100 μL complete medium. On Day 1, cells were treated in duplicate with 10-point 1:3 dilution series of compound using the HP D300 Digital Dispenser (Tecan). DMSO concentrations were normalized across the plate to 0.1%. On Day 2, after 24 h of incubation at 37° C., treatment media was discarded, cells rinsed with 100 μL/well PBS and then detached using 40 μL trypsin/well for 5 min. Trypsin was neutralized with 100 μL/well PBS+20% FCS).
Flow cytometry was performed on the samples using the CytoFlex S (Beckman Coulter). Cell identification was then performed using forward (FSC) vs. side scatter (SSC) plots. Single cell discrimination was performed using SSC-Width (SSC-W) vs. SSC-Height (SSCH) plots. Median GFP values for 2,500 single cells were used to determine TEAD1 levels. Median GFP values from HEK293A were used as a background signal and thus defining 0% TEAD1 signal. Median GFP values from DMSO treated HEK293A TEAD1-GFP CHYSEL-mCherry were used to define 100%
TEAD1 signal for subsequent DC50 curves (concentration at 50% TAED1 degradation). GFP and RFP were read in the channels called FITC and PE, respectively. Concentration response curves plotting relative reduction of the GFP signal (measured by flow cytometry) versus 10 compound concentrations (starting concentration 10 μM, 3 fold dilution steps) of the compounds allowed generation of DC50 values.
A general note: In flow cytometry, cells or beads pass a laser one at a time.

Assay [2] concerns the target Avi-humanTEAD4^217-434 / Cy5 labeled humanYAP^60-100 (Homo sapiens (Human), UniProt Q15561). Kind of assay: In-vitro biochemical TR-FRET assay (TEAD4/YAP). The conditions noted are these: 1 h at room temperature. The format is binding.
Assay [3] concerns MKN-45/Ubc-luc cells (unspecific inhibition of luciferase expression or activity). Kind of assay: Reporter gene assay specificity control (Ubc-Luc), MKN-45. The conditions noted are these: Homo sapiens; MKN-45/Ubc-luc specificity control, 24 hrs. The format is cell-based. Put shortly: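 MKN-45 cells stably carrying a ubiquitin C promoter–firefly luciferase construct, treated the day after seeding with eleven 2-fold compound dilutions (0.1% DMSO final) for 24 hrs at 37° C. Luminescence read 5 min after Steady Glo addition; cell-free background subtracted, as a control for nonspecific luciferase inhibition.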

Assay [4] relates to SF268-MCAT_Luc_dox-i-shYAPLevy (Clone 13) cells. Briefly: Proliferation assay (resazurin/AlamarBlue), SF268. Format: cell-based. The conditions noted are these: Homo sapiens, SF-268; SF268, 72 hours.
For assay [5], the system named is YAP-dependent transcription in NCI-H2052 Tet-On shYAP_2371 pLenti6 MCAT_Luc cells. Kind of assay: YAP reporter gene activity assay (MCAT-Luc), NCI-H2052. Format: cell-based. The conditions noted are these: Homo sapiens, 24 hrs. On the technique in general: A reporter such as luciferase makes a cellular process visible.
The subject of assay [6] is NCI-H2052 Tet-On shYAP_2371 pLenti6 MCAT_Luc cells. Kind of assay: Proliferation assay (resazurin/AlamarBlue), NCI-H2052. The format is cell-based. The settings on record: Homo sapiens; NCI-H2052, 72 hours.
For assay [7], the system named is YAP-dependent transcription in SF268-MCAT_Luc_dox-i-shYAPLevy (Clone 13) cells. Kind of assay: YAP reporter gene activity assay (MCAT-Luc), SF268. The settings on record: Homo sapiens, SF-268; SF268 MCAT_Luc, 24 hrs. The format is cell-based.

Avi-humanTEAD4^217-434 / Cy5 labeled humanYAP^60-100, sequence (Q15561 217-434): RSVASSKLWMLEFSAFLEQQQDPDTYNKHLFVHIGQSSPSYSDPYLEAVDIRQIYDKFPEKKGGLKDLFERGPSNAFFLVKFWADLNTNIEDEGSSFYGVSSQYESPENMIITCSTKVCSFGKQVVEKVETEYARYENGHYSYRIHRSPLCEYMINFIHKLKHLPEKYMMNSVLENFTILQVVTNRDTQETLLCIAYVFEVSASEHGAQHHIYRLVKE
TEAD1-GFP in HEK293A cells, sequence (P28347 whole entry): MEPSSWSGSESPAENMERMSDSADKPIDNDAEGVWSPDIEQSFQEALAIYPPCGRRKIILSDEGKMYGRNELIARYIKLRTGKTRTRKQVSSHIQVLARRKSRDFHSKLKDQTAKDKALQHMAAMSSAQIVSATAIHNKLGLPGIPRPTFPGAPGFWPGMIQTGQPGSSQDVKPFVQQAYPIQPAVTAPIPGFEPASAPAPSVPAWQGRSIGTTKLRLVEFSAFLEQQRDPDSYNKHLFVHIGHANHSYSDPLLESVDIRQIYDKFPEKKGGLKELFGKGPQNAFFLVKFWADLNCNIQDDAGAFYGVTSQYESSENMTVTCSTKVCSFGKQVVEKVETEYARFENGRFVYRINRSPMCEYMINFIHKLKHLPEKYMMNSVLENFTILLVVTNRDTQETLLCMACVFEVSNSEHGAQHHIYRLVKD

A word on the GI50: it is the concentration at which growth is held to half of that of the control. Read a low GI50 as greater sensitivity of the cells. As a reminder, the IC50 is the concentration needed to halve the response being measured. Low readings indicate inhibition by little substance, high ones a need for much substance. For the compound `COc1ccc(C(=O)N2CCC(CC3CCN(C(=O)[C@H]4CC[C@H](NC[C@]5(c6ccccc6)Oc6cc(F)c(Cl)c(-c7c(C(N)=O)ccc(OC)c7F)c6[C@@H]5C)CC4)CC3)CC2)cc1N1CCC(=O)NC1=O` (atropisomer, axis not shown) [Example 1, 2-((2S,3S,4S)-5-chloro-2-((((1r,4S)-4-(4-((1-(3-(2,4-dioxotetrahydropyrimidin-1(2H)-yl)-4-methoxybenzoyl)piperidin-4-yl)methyl)piperidine-1-carbonyl)cyclohexyl)amino)methyl)-6-fluoro-3-methyl-2-phenyl-2,3-dihydrobenzofuran-4-yl)-3-fluoro-4-methoxybenzamide], the GI50 in the assay with MKN-45/Ubc-luc cells was 11000 nM; in assay [4] it was 14 nM; in assay [6], 15 nM. The DC50 in assay [1] amounted to 0.6 nM. For the same compound, the IC50 in assay [2] is 1.9 nM; in assay [3], above 20000 nM; in assay [5], 3.6 nM; in assay [7], 0.3 nM.

For `COc1ccc(C(=O)N2CCC(OC3CCN(C(=O)[C@H]4CC[C@H](NC[C@]5(c6ccccc6)Oc6cc(F)c(Cl)c(-c7c(C(N)=O)ccc(OC)c7F)c6[C@@H]5C)CC4)CC3)CC2)cc1N1CCC(=O)NC1=O` (atropisomer, axis not shown) [Example 2, 2-((2S,3S,4S)-5-chloro-2-((((1r,4S)-4-(4-((1-(3-(2,4-dioxotetrahydropyrimidin-1(2H)-yl)-4-methoxybenzoyl)piperidin-4-yl)oxy)piperidine-1-carbonyl)cyclohexyl)amino)methyl)-6-fluoro-3-methyl-2-phenyl-2,3-dihydrobenzofuran-4-yl)-3-fluoro-4-methoxybenzamide], the GI50 is above 20000 nM in the assay on MKN-45/Ubc-luc cells, 41 nM in assay [4] and 48 nM in assay [6]. Also, the DC50 in assay [1] worked out at 2 nM. Moreover, the IC50 in assay [2] was 1.4 nM; in assay [3], above 20000 nM; in assay [5], 13 nM; in assay [7] it was 0.9 nM.

On to `COc1ccc(C(=O)N2CCN(CC3CCN(CCNC(=O)[C@H]4CC[C@H](NC[C@]5(c6ccccc6)Oc6cc(F)c(Cl)c(-c7c(C(N)=O)ccc(OC)c7F)c6[C@@H]5C)CC4)CC3)CC2)cc1N1CCC(=O)NC1=O` (atropisomer, axis not shown) [Example 3, 2-((2S,3S,4S)-5-chloro-2-((((1r,4S)-4-((2-(4-((4-(3-(2,4-dioxotetrahydropyrimidin-1(2H)-yl)-4-methoxybenzoyl)piperazin-1-yl)methyl)piperidin-1-yl)ethyl)carbamoyl)cyclohexyl)amino)methyl)-6-fluoro-3-methyl-2-phenyl-2,3-dihydrobenzofuran-4-yl)-3-fluoro-4-methoxybenzamide], for which the GI50 in the assay with MKN-45/Ubc-luc cells is above 20000 nM; in assay [4], 54 nM; in assay [6], 320 nM. The DC50 in assay [1] was 6 nM. Further, the concentration for half-maximal inhibition (IC50) is below 1 nM in assay [2], above 20000 nM in assay [3], 98 nM in assay [5] and 1.6 nM in assay [7].

Regarding `COc1ccc(C(=O)N2CCC3(CCN(CCNC(=O)[C@H]4CC[C@H](NC[C@]5(c6ccccc6)Oc6cc(F)c(Cl)c(-c7c(C(N)=O)ccc(OC)c7F)c6[C@@H]5C)CC4)CC3)CC2)cc1N1CCC(=O)NC1=O` (atropisomer, axis not shown) [Example 5, 2-((2S,3S,4S)-5-chloro-2-((((1r,4S)-4-((2-(9-(3-(2,4-dioxotetrahydropyrimidin-1(2H)-yl)-4-methoxybenzoyl)-3,9-diazaspiro[5.5]undecan-3-yl)ethyl)carbamoyl)cyclohexyl)amino)methyl)-6-fluoro-3-methyl-2-phenyl-2,3-dihydrobenzofuran-4-yl)-3-fluoro-4-methoxybenzamide], the GI50 in the assay on MKN-45/Ubc-luc cells was above 20000 nM; in assay [4], 89 nM; in assay [6], 360 nM. Moreover, the DC50 in assay [1] came out at 35 nM. Further, the half-maximal inhibitory concentration (IC50) is below 1 nM in assay [2], above 20000 nM in assay [3], 160 nM in assay [5] and 2.5 nM in assay [7].

In the case of `COc1ccc(C(=O)N2CCN(CC3CCN(C(=O)[C@H]4CC[C@H](NC[C@]5(c6ccccc6)Oc6cc(F)c(Cl)c(-c7c(C(N)=O)ccc(OC)c7F)c6[C@@H]5C)CC4)CC3)CC2)cc1N1CCC(=O)NC1=O` (atropisomer, axis not shown) [Example 6, 2-((2S,3S,4S)-5-chloro-2-((((1r,4S)-4-(4-((4-(3-(2,4-dioxotetrahydropyrimidin-1(2H)-yl)-4-methoxybenzoyl)piperazin-1-yl)methyl)piperidine-1-carbonyl)cyclohexyl)amino)methyl)-6-fluoro-3-methyl-2-phenyl-2,3-dihydrobenzofuran-4-yl)-3-fluoro-4-methoxybenzamide], the GI50 in the assay on MKN-45/Ubc-luc cells was above 20000 nM; in assay [4], 39 nM; in assay [6] it was 61 nM. This compound showed a DC50 in assay [1] of 2 nM. Besides, the 50% inhibitory concentration (IC50) was 1.5 nM in assay [2], above 20000 nM in assay [3], 16 nM in assay [5] and 0.5 nM in assay [7].

`COc1ccc(C(=O)N2CCC(CC3CCN(CCNC(=O)[C@H]4CC[C@H](NC[C@]5(c6ccccc6)Oc6cc(F)c(Cl)c(-c7c(C(N)=O)ccc(OC)c7F)c6[C@@H]5C)CC4)CC3)CC2)cc1N1CCC(=O)NC1=O` (atropisomer, axis not shown) [Example 7, 2-((2S,3S,4S)-5-chloro-2-((((1r,4S)-4-((2-(4-((1-(3-(2,4-dioxotetrahydropyrimidin-1(2H)-yl)-4-methoxybenzoyl)piperidin-4-yl)methyl)piperidin-1-yl)ethyl)carbamoyl)cyclohexyl)amino)methyl)-6-fluoro-3-methyl-2-phenyl-2,3-dihydrobenzofuran-4-yl)-3-fluoro-4-methoxybenzamide]: the GI50 in the assay on MKN-45/Ubc-luc cells is above 20000 nM; in assay [4], 26 nM; in assay [6], 77 nM. In assay [1], the DC50 came out at 3 nM. In addition, the IC50 in assay [2] is below 1 nM; in assay [3], above 20000 nM; in assay [5], 29 nM; in assay [7] it was 0.4 nM.

Turning to `COc1ccc(C(=O)N2CCN(CC3CN(C(=O)[C@H]4CC[C@H](NC[C@]5(c6ccccc6)Oc6cc(F)c(Cl)c(-c7c(C(N)=O)ccc(OC)c7F)c6[C@@H]5C)CC4)C3)CC2)cc1N1CCC(=O)NC1=O` (atropisomer, axis not shown) [Example 9, 2-((2S,3S,4S)-5-chloro-2-((((1r,4S)-4-(3-((4-(3-(2,4-dioxotetrahydropyrimidin-1(2H)-yl)-4-methoxybenzoyl)piperazin-1-yl)methyl)azetidine-1-carbonyl)cyclohexyl)amino)methyl)-6-fluoro-3-methyl-2-phenyl-2,3-dihydrobenzofuran-4-yl)-3-fluoro-4-methoxybenzamide], the 50% growth inhibitory concentration (GI50) was above 2000 nM in the assay on MKN-45/Ubc-luc cells, 120 nM in assay [4] and 1190 nM in assay [6]. In addition, the DC50 in assay [1] was determined as 112 nM. For the same compound, the concentration for half-maximal inhibition (IC50) in assay [2] is 1.2 nM; in assay [3], above 2000 nM; in assay [5], 350 nM; in assay [7], 3.5 nM.
